This note sets out measurements from patent US20110306638A1, “BENZISOXAZOLE PIPERIDINYL DERIVATIVES, PHARMACEUTICAL COMPOSITIONS COMPRISING THE DERIVATIVES AND THEIR USE” (NHWA PHARMA. CORPORATION, priority 2008, published 2011).

SMILES strings stand for the structures. Marks after values point to notes of the source that are not given here.

Data set [1] addresses T1, 5-HT reuptake by brain synapses (Rattus norvegicus, UniProt P31652).
T1 construct: forehead cortex was obtained for [^3H]5-HT, [^3H]NA reuptake test; from tissue; host or cells: rat (SD) forebrain cortex synaptosomes
Kind of data set: [3H]5-HT reuptake test in rat brain synapses. It is filed as biochemical. Here is the method:
The method was as follows:
Male SD rats were killed by cervical dislocation, heads were immediately cut and brains were obtained and put on ice, related brain tissues were dissected (forehead cortex was obtained for [^3H]5-HT, [^3H]NA reuptake test, corpus striatum was obtained for [^3H]DA reuptake).
After the sample was weighed, 10 folds (V/W) ice cold 0.32 mol/L sucrose solution was added.
According to [a. […] 5-HT was added and after incubation in water bath at 37° C. for 10 min, the reaction mixture was immediately taken out of the water bath and 2 ml ice cold 150 mmol/L Tris-HCl was added to terminate the reaction. The sample was collected on a round glass fiber filter by vacuum filtration and washed three times with 3 ml ice cold Tris-HCl buffer. The filter membrane was removed, dried in a far-infrared oven for 15 min, then transferred into a EP tube, in which 1.5 ml scintillation fluid was added, left overnight and detected by a scintillation counter. The test sample was not added into solvent controlled overall binding tube or non-specific binding tube. 50 μl solvent was added into the overall binding tube, and in [^3H] 5-HT reuptake test, 600 μmol/L cocaine was added into the non-specific binding tube.

Data set [2] concerns the target opioid receptor subtype δ (Homo sapiens, UniProt P41143). Kind of data set: Competitive binding to opioid receptor subtype δ, [3H]Diprenorphine. The protocol: (§1) The respective test compounds were added to the sample tube (final concentration of 10^−5M), incubated at 37° C. for 30 min and placed in ice bath to terminate the reaction. The reaction mixture was filtered through GF/C (Whatman) glass fiber filter by vacuum filtration on a Millipore sample collector. The filter was washed three times with 50 mM Tris-HCl (pH7.4), each with 4 ml; dried and transferred into a 0.5 ml Eppendorf tube, in which 0.5 ml lipophilic scintillation fluid was added. Radioactivity was detected by a LS6500 scintillation counter. Each concentration had three duplicate test tubes and each separate test was repeated 3 to 4 times.
(§2) Specific binding CMP value for each sample tube=overall binding CPM value for each sample tube−CPM value of non-specific binding tube.
(§3) [Inhibition percentage of competitive binding between the test compound and different opioid receptor subtypes (%)=(100%−specific binding (CPM value)of sample tube/specific binding(CPM value)of solvent group×100%)]
Average was taken for each test drug from three duplicate tubes; each test was repeated two or more times. Data were presented as mean±SE and statistical comparison was made by ANOVA.

Data set [3] is described as follows: Acute toxicity, single intragastric administration to mice. Conditions: mouse, in vivo, po, Bliss method. The source says: Statistics were made according to Bliss method (“Experimental Design and Statistical Basis for Drug Evaluation”, Changxiao Liu, Ruiyuan Su, first edition, Military Medical Science Press, 1993, 80-90).
For data set [4], the target named is opioid receptor subtype κ (Homo sapiens, UniProt P41145). Kind of data set: Competitive binding to opioid receptor subtype κ, [3H]Diprenorphine. Here is the method: as §1, §2, §3
Average was taken for each test drug from three duplicate tubes; each test was repeated two or more times.

In a further data set the test system is Kunming mice. Kind of data set: Acetic acid-induced abdominal writhing test in mice. It is filed as in vivo. Here is the method:
Kunming mice, SPF KM mice purchased from […] SLAC LABORATORY ANIMAL CO. LTD and kept in normal environment.
The compounds were dissolved in water for injection at a concentration of 4 mg/ml, 2 mg/ml and 1 mg/ml and were given intragastrically to animals.
Three different doses (10, 20, and 40 mg/kg) were administered to the test groups.
Aspirin was used as a positive control and acetic acid writhing test was used.
30 mice (half male and half female) weighing 18-23 g were divided into five groups, including negative control group, positive control group, low dose group, medium dose group and high dose group:
Mice in test group received test drug (10 mg/kg, 20 mg/kg, 40 mg/kg) via intragastric administration. Negative control group received physiological saline (20 ml/kg) via oral administration. Positive control group received aspirin (200 mg/kg) via oral administration. One hour later, each group received 0.7% acetic acid 10 ml/kg intraperitoneally. Five minutes later, the number of writhes was counted within the subsequent 15 min period; inhibition percentage of writhing response in each test group was calculated by the following equation: […]
(In general: In writhing tests, fewer writhes than in controls are read as antinociception.)

In the next data set the test system is mice. Kind of data set: Sedative effects in mice (spontaneous activities). Conditions: single dose 20 mg/kg. The arrangement: unit not given here. It is filed as in vivo. Here is the method: Spontaneous activities of the mice were recorded by alternating current tube, Sedative effects were tested after single dose (20 mg/kg).
A further data set addresses T2, 5-HT2A receptor (Homo sapiens, UniProt P28223).
T2 construct: expressed in transfected cells; host or cells: HEK293
Kind of data set: In-vitro competitive binding to 5-HT2A receptor, [3H]-Ketanserin, transformed HEK293 cells. Here is the method: All test samples were dissolved in DMSO at a concentration of 0.01 mol/L, and then diluted with deionized water to 100 umol/L.
HEK293 cells were transformed with plasmid carriers containing the gene coding for 5-HT2A receptor protein by using calcium phosphate transformation. Stable cell strains which could stably express 5-HT2A receptor protein were obtained from the transformed cells by cultivating in a culture media containing G418, selecting monoclones of the cell and performing radioactive ligand binding assay.
Beckman LS 6500 Scintillation Counter.
HEK-293 cells were infected with recombined viruses containing various genes described above. […] Cells were centrifuged at 1000 rpm for 5 min Culture media was discarded, and cell bodies were collected and stored at −20° C. in a freezer. The cell bodies were resuspended with Tris-HCl reaction buffer during assay.
After incubation at 37° C. for 15 min, the reaction mixture was immediately transferred into ice bath to terminate the reaction; the reaction mixture was quickly filtered through GF/C glass cellulose filter on a Millipore cell sample collector, and was then washed with eluting solution (50 mM Tris-HCl, PH 7.7, 3 ml×3) and dried in a microwave for 8-9 min. The filter was transferred into a 0.5 ml centrifuge tube, and 500 μl lipid soluble scintillation fluid was added. The centrifuge tube was allowed to stand in darkness for more than 30 min. Radioactivity was determined by counting Inhibition percentage of each compound on isotope ligand binding was calculated according to the following equation:
inhibition percentage(I %)=cpm of overall binding tube−cpm of compound/cpm of overall binding tube−cpm of nonspecific binding tube×100%.
Each compound was tested in two duplicate test tubes and two separate tests were performed.

Where [5] appears, read: affinity to 5-HT2A receptor, concentration gradient test.

Usually inhibition stands for the change of the read-out against control, counted positive when it falls. As a reminder, the LD50 is the dose at which mortality reaches 50%. The term IC50 denotes the concentration that inhibits the measured activity by half. The term Ki denotes the dissociation constant of the complex between target and ligand, obtained from inhibition or displacement. Turning to `N#Cc1ccc2ccn(CCCCN3CCC(c4noc5cc(F)ccc45)CC3)c2c1` [II-9, 1-(4-(4-(6-fluorobenzo[d]isoxazol-3-yl)piperidin-1-yl)butyl)-1H-indole-6-carbonitrile], in data set [1] (at 10 μmol/L, compared with Dutoxetine), the “inhibitory activity on 5-HT reuptake (in words)” value is listed as “potent inhibitory activities”. Also, the inhibition at 10 µM turned out to be 105% in data set [1] (final concentration 10 umol/L, rat brain synapses, read-out: 5-HTU [3H] 5-HT reuptake inhibition percentage Mean); 0% in data set [2] (tested concentration 10^−5 mol/L, read-out: δ inhibition percentage of competitive binding); 28.5 ± 1.3% in data set [4] (tested concentration 10^−5 mol/L, read-out: κ inhibition percentage of competitive binding); 99.3% on 5-HT2A receptor (read-out: 5-HT2A [3H]-Ketanserin inhibition percentage). Besides, the “affinity to opioid receptor subtype δ (in words)” value in data set [2] was “no obvious affinity”. In data set [3], this compound gave an LD50 of 800 mg/kg. The “affinity to opioid receptor subtype κ (in words)” value in data set [4] is reported as “no obvious affinity”. In addition, the “Inhibition percentage of writhing response” value is listed as 100** % with Kunming mice (10 mg/kg intragastric administration), 99.05* % in the data set on Kunming mice (20 mg/kg intragastric administration) and 100** % in the data set on Kunming mice (40 mg/kg intragastric administration). Moreover, the Sedative effect in the data set with mice is reported as 47*. Also, the 50% inhibitory concentration (IC50) at 5-HT2A receptor (setting [5]) worked out at 2.92 nM. Besides, at 5-HT2A receptor (setting [5]), the Ki was 1.97 nM. Besides, the “inhibitory activity on 5-HT2A (in words)” value at 5-HT2A receptor (compared with Aripiprazole) is recorded as “potent inhibitory activities”.
